{"source": "patent US11078256B2", "about": "“Methods and compositions for inhibiting cancer cell growth” (THE BOARD OF REGENTS OF THE UNIVERSITY OF TEXAS SYSTEM, priority 2018, dated 2021)", "type_in_all_cases": "cell-based, Human", "key": {"[1]": {"tested_on": "AU565 breast cancer cell line (Her2/neu and p53 positive)", "description": "(§1) Experimental design: The experimental design (see FIG. 1) was to seed the HCC38 breast cancer cell line (BCCL) with the p1978 pep-tide in order to determine the effects of the peptide on cell growth. The HCC38 cell line was chosen because of its triple negative receptor status. […] They are more likely to recur than other subtypes of breast cancer.\n(§2) The 184B5 (normal breast tissue cells) were seeded to serve as a negative control while the AU565 BCCL, a cell line with a positive Her2/neu and p53 receptor status, was inoculated to serve as a positive control. In the initial phase, treatment cell lines were treated with 8.26 μg/ml of p1978. The con-centration corresponds closely to the average SMR3B (the parent protein of the p1978 peptide), concentration, plus one standard deviation found in healthy breast tissues. A second experiment was performed doubling the concentration of 1978 to 16.52 μg/ml. FIG. 1 represents a schematic of the design used for the study.\n(§3) Corresponding unseeded cell lines served as controls. The controls were treated with a placebo containing 1.0 ml of sterile PBS (for cell culture). An expanded dose-response experiment was not performed due to limited resources. The experiment ended 48 hours after seeding. The outcome variables of this study were total cell count, live cell count and percent viability.\n(§4) Cell lines: Human breast cell lines HCC38 (HCC38 BL (ATCC® CRL-2346™), AU565 (ATCC® CRL2351™) and 184B5 (ATCC® CRL-8799™) were purchased from the American Type Culture Collection. Cell line descriptions are summarized in Table 1.\n(§5) Cell growth procedures: The aforementioned cell lines were thawed in a 37.0 water bath with gentle agitation. The vials were decontaminated and the cells were added drop wise to 9 ml of their prospective culture media while gently mixing. The cell suspension was centrifuged at 1,000 rpm for five minutes. The supernatant was carefully removed and the cell pellet was resuspended in 5.0 ml of media. Each cell line was checked for viability using a hemocytometer and a cell count/ml was calculated. Nine plates were seeded of each cell line at a total of 1.0×10^6 cells/100 mm plates. Once the plates reached 30% confluency, nine plates of each cell line were treated with 8.26 μg/ml (4.95 μM) of p1978 peptide and a set of nine control plates were treated with 1.0 ml of phosphate buffered saline (PBS). They were incubated and harvested by trypsinization in 48 hours. The cells from each plate were counted for the total number of cells and were assessed for viability using the trypan blue exclusion test of cell viability. The same procedures were repeated for the higher 16.52 ug/ml (9.88 uM) dose.\n(§6) Statistics: Data was tabulated using SPSS statistical software. The outcome variables of this study were total cell count, live cell count and percent viability. To assess these variables, descriptive statistics were employed to compare p1978 treated cells relative to the control cells. The approach consisted mainly of bar charts, mean cell counts and mean percentages. The cellular growth rate was determined by subtracting the resultant or final cell count from its baseline value. The difference was divided by 48 hours the growing time for the cells. The results were expressed in cells/hour.\n(§7) A homoscedastic univariate t-test was computed for differences between the treated and the control groups. The arithmetic mean value of the control group was used as the “cut-point” value. The alpha level was p<0.05."}, "[2]": {"tested_on": "HCC38 breast cancer cell line (triple negative)", "assay": "Cell growth: total and live cell count, trypan blue exclusion viability, 48 hours after seeding with p1978", "set-up": "key to Total growth rate, Treated / Live growth rate, Treated: N.G. = Negative Growth", "description": "as §1, §2, §3, §4, §5, §6, §7"}, "in vitro": {"assay": "in vitro", "conditions": "human", "description": "as §1, §2, §3, §4, §5, §6, §7"}, "[3]": {"tested_on": "184B5 cell line (normal breast tissue cells)", "assay": "in vitro", "description": "as §1, §2, §3, §4, §5, §6, §7"}, "[4]": {"conditions": "AU565, 8.26 ug/ml p1978, 48 hours"}, "[5]": {"conditions": "AU565, 8.26 μg/ml p1978, over 48 hours"}, "[6]": {"conditions": "AU565, 16.52 μg/ml p1978, 48 hours"}, "[7]": {"conditions": "AU565, 16.52 μg/ml p1978, 48 hours, footnote: * represents 10^5"}, "[8]": {"conditions": "AU565, 16.52 μg/ml p1978, over 48 hours"}, "[9]": {"conditions": "HCC38, 8.26 μg/ml p1978, over 48 hours"}, "[10]": {"conditions": "HCC38, 16.52 μg/ml p1978, 48 hours"}, "[11]": {"conditions": "HCC38, 16.52 μg/ml p1978, over 48 hours"}, "[12]": {"conditions": "184B5, 8.26 ug/ml p1978, 48 hours"}, "[13]": {"conditions": "184B5, 8.26 μg/ml p1978, over 48 hours"}, "[14]": {"conditions": "184B5, 16.52 ug/ml p1978, 48 hours"}, "[15]": {"conditions": "184B5, 16.52 μg/ml p1978, 48 hours"}, "[16]": {"conditions": "184B5, 16.52 μg/ml p1978, over 48 hours"}}, "note": "Like-named read-outs stand apart in the source and are kept apart here. No end group written: not given here."}
{"sequence": "PRGPYPPGPLAPPQ [p1978, PRGPYPPGPLAPPQ]", "values": [{"measurement": "live cell count higher than control group", "setting": "[1]; [4]", "result": 11.7, "unit": "%"}, {"measurement": "total cell count higher than control group", "setting": "[1]; [4]", "result": 31.5, "unit": "%"}, {"measurement": "Live growth rate, Treated", "setting": "[1]; [5]", "result": "0.77 10^4 cells/hour"}, {"measurement": "Total growth rate, Treated", "setting": "[1]; [5]", "result": "1.38 10^4 cells/hour"}, {"measurement": "knockdown effect on cell count", "setting": "[1]; AU565, 16.52 ug/ml p1978", "result": "No knockdown effect"}, {"measurement": "increase in living cell count", "setting": "[1]; AU565, 16.52 ug/ml p1978, 48 hours", "result": 23.1, "unit": "%"}, {"measurement": "% Live, Treated", "setting": "[1]; [6]", "result": 75, "unit": "%"}, {"measurement": "Live × 10^6 (mean cell count with standard deviation), Treated", "setting": "[1]; [6]", "result": "1.60 (±0.42) × 10^6"}, {"measurement": "Live × 10^6, Treated - Control", "setting": "[1]; [6]", "result": "0.30 × 10^6"}, {"measurement": "Total × 10^6 (mean cell count with standard deviation), Treated", "setting": "[1]; [6]", "result": "2.14 (±0.50) × 10^6"}, {"measurement": "Total × 10^6, Treated - Control", "setting": "[1]; [6]", "result": "0.27 × 10^6"}, {"measurement": "Live, Treated - Baseline", "setting": "[1]; [7]", "result": "0.24* 10^5"}, {"measurement": "Total, Treated - Baseline", "setting": "[1]; [7]", "result": "0.24* 10^5"}, {"measurement": "Live growth rate, Treated", "setting": "[1]; [8]", "result": "0.50 10^4 cells/hour"}, {"measurement": "Total growth rate, Treated", "setting": "[1]; [8]", "result": "0.50 10^4 cells/hour"}, {"measurement": "percent viability, treated", "setting": "[1]; human, 48 hours, 8.26 ug/ml", "result": 61, "unit": "%"}, {"measurement": "reduction of total cell count versus control", "setting": "[2]; HCC38, 8.26 ug/ml p1978, 48 hours", "result": 20.8, "unit": "%"}, {"measurement": "reduction of living cell count versus control", "setting": "[2]; HCC38, 8.26 ug/ml p1978, 48 hours, t=−3.25, p 0.08", "result": 33.2, "unit": "%"}, {"measurement": "Live growth rate, Treated", "setting": "[2]; [9]", "result": "N.G."}, {"measurement": "Total growth rate, Treated", "setting": "[2]; [9]", "result": "N.G."}, {"measurement": "growth rate difference, treated versus control", "setting": "[2]; HCC38, 16.52 ug/ml p1978", "result": "−38", "unit": "%"}, {"measurement": "average total number of cells higher in control than in treated (knockdown effect)", "setting": "[2]; HCC38, 16.52 ug/ml p1978, 48 hours", "result": 22.4, "unit": "%"}, {"measurement": "% Live, Treated", "setting": "[2]; [10]", "result": 92, "unit": "%"}, {"measurement": "Live × 10^6 (mean cell count with standard deviation), Treated", "setting": "[2]; [10]", "result": "1.87 (±0.43) × 10^6"}, {"measurement": "Live × 10^6, Treated - Baseline", "setting": "[2]; [10]", "result": "1.10 × 10^6"}, {"measurement": "Live × 10^6, Treated - Control", "setting": "[2]; [10]", "result": "−0.67 × 10^6"}, {"measurement": "Total × 10^6 (mean cell count with standard deviation), Treated", "setting": "[2]; [10]", "result": "2.03 (±0.62) × 10^6"}, {"measurement": "Total × 10^6, Treated - Baseline", "setting": "[2]; [10]", "result": "1.03 × 10^6"}, {"measurement": "Total × 10^6, Treated - Control", "setting": "[2]; [10]", "result": "−0.61 × 10^6"}, {"measurement": "decrease in the number of living cells as compared to the control", "setting": "[2]; HCC38, 16.52 ug/ml p1978, 48 hours, t=−3.08, p<0.05", "result": 37.9, "unit": "%"}, {"measurement": "Live growth rate, Treated", "setting": "[2]; [11]", "result": "2.29 10^4 cells/hour"}, {"measurement": "Total growth rate, Treated", "setting": "[2]; [11]", "result": "2.16 10^4 cells/hour"}, {"measurement": "viability at 48 hours, 8.26 μg/ml", "setting": "in vitro", "result": 91, "unit": "%"}, {"measurement": "viability at 48 hours, 16.52 μg/ml", "setting": "in vitro", "result": "95 to 98", "unit": "%"}, {"measurement": "difference in growth rate between the treated and the controls", "setting": "[3]; 184B5, 8.26 ug/ml p1978", "result": "almost negligible difference"}, {"measurement": "higher living cell count for the treated cells as compared to the control", "setting": "[3]; [12]", "result": 3.5, "unit": "%"}, {"measurement": "higher total cell count for the treated cells as compared to the control", "setting": "[3]; [12]", "result": 7.5, "unit": "%"}, {"measurement": "Live growth rate, Treated", "setting": "[3]; [13]", "result": "0.59 10^4 cells/hour"}, {"measurement": "Total growth rate, Treated", "setting": "[3]; [13]", "result": "1.11 10^4 cells/hour"}, {"measurement": "effect on cell viability or growth rate", "setting": "[3]; 184B5, 16.52 ug/ml p1978", "result": "no effect"}, {"measurement": "increase in the living cell count for the treated cells as compared to the control", "setting": "[3]; [14]", "result": 63.7, "unit": "%"}, {"measurement": "increase in the total cell count for the treated cells as compared to the control", "setting": "[3]; [14]", "result": 22.4, "unit": "%"}, {"measurement": "% Live, Treated", "setting": "[3]; [15]", "result": 98, "unit": "%"}, {"measurement": "Live × 10^6 (mean cell count with standard deviation), Treated", "setting": "[3]; [15]", "result": "4.82 (±0.75) × 10^6"}, {"measurement": "Live × 10^6, Treated - Baseline", "setting": "[3]; [15]", "result": "2.57 × 10^6"}, {"measurement": "Live × 10^6, Treated - Control", "setting": "[3]; [15]", "result": "1.00 × 10^6"}, {"measurement": "Total × 10^6 (mean cell count with standard deviation), Treated", "setting": "[3]; [15]", "result": "4.91 (±0.63) × 10^6"}, {"measurement": "Total × 10^6, Treated - Baseline", "setting": "[3]; [15]", "result": "2.62 × 10^6"}, {"measurement": "Total × 10^6, Treated - Control", "setting": "[3]; [15]", "result": "0.90 × 10^6"}, {"measurement": "Live growth rate, Treated", "setting": "[3]; [16]", "result": "2.77 10^4 cells/hour"}, {"measurement": "Total growth rate, Treated", "setting": "[3]; [16]", "result": "7.83 10^4 cells/hour"}]}
